Assay [1] has as its target 3',5'-cyclic-AMP phosphodiesterase 4A (Homo sapiens, UniProt P27815). It is filed as functional.
In another assay the target is Prothrombin (Homo sapiens, UniProt P00734). Format: functional.
Assay [2] concerns the target T1, Amine oxidase [flavin-containing] A (Homo sapiens, UniProt P21397).
T1 sequence (P21397 whole entry): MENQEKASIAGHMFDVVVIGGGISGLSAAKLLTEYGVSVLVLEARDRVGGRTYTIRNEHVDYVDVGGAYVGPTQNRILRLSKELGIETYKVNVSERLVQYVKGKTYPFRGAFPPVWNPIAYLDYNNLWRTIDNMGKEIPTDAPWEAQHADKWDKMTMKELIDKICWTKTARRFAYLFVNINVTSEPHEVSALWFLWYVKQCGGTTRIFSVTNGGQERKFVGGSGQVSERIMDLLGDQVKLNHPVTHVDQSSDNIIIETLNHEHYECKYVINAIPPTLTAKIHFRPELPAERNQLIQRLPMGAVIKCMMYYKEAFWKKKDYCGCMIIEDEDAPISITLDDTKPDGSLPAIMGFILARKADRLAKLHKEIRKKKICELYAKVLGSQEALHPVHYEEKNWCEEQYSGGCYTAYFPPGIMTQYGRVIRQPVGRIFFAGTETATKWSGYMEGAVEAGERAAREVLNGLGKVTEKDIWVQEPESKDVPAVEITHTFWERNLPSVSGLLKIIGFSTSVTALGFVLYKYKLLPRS
It is filed as functional.

Assay [3] addresses T2, Alpha-2A adrenergic receptor (Homo sapiens, UniProt P08913).
T2 sequence (P08913 whole entry): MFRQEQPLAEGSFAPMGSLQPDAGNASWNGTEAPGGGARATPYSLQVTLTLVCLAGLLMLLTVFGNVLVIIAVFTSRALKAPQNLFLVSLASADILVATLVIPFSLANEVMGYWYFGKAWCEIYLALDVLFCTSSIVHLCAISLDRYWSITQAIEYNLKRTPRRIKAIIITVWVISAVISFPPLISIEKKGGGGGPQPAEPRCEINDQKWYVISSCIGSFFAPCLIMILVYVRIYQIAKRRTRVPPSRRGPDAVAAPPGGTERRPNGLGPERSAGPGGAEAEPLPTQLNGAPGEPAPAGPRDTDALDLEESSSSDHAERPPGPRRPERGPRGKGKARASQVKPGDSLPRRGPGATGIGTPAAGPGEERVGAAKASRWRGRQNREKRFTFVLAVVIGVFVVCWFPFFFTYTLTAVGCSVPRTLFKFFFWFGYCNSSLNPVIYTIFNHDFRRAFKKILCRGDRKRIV

The target of assay [4] is T3, Thromboxane A2 receptor (Homo sapiens, UniProt P21731).
T3 sequence (P21731 whole entry): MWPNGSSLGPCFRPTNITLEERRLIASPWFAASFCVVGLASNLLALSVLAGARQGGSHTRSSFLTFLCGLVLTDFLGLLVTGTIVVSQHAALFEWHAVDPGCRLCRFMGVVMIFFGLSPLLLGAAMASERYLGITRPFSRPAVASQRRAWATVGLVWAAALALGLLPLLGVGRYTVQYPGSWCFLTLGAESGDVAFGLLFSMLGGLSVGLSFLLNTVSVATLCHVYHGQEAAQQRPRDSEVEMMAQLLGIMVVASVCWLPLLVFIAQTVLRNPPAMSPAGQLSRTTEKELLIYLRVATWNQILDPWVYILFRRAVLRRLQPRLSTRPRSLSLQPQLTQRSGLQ
It is filed as functional, cell-based.

The target of assay [5] is Sodium-dependent dopamine transporter (Homo sapiens, UniProt Q01959).
A further assay addresses Acetylcholinesterase (Homo sapiens, UniProt P22303). Format: functional.
Assay [6] deals with T4, Muscarinic acetylcholine receptor M2 (Homo sapiens, UniProt P08172).
T4 sequence (P08172 whole entry): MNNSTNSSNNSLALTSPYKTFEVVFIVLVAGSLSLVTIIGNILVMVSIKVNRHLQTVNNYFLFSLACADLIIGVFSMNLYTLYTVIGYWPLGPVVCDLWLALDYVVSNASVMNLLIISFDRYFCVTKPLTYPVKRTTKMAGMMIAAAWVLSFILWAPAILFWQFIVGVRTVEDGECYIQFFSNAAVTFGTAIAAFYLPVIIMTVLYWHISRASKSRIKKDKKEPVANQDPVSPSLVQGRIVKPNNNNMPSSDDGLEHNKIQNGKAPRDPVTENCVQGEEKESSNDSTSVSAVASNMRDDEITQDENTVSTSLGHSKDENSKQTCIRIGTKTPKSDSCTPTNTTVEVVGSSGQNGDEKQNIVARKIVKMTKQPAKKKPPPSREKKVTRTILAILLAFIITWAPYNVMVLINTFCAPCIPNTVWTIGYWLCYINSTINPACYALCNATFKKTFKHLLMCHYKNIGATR

Assay [7] has as its target T3, Thromboxane A2 receptor. Format: functional, cell-based. The source holds these as a separate data set.
The target in assay [8] is cGMP-inhibited 3',5'-cyclic phosphodiesterase 3A (Homo sapiens, UniProt Q14432). Format: functional.
In assay [9] the target is 5-hydroxytryptamine receptor 2B (Homo sapiens, UniProt P41595). It is filed as functional, cell-based.
The target of assay [10] is T5, 5-hydroxytryptamine receptor 1A (Homo sapiens, UniProt P08908).
T5 sequence (P08908 whole entry): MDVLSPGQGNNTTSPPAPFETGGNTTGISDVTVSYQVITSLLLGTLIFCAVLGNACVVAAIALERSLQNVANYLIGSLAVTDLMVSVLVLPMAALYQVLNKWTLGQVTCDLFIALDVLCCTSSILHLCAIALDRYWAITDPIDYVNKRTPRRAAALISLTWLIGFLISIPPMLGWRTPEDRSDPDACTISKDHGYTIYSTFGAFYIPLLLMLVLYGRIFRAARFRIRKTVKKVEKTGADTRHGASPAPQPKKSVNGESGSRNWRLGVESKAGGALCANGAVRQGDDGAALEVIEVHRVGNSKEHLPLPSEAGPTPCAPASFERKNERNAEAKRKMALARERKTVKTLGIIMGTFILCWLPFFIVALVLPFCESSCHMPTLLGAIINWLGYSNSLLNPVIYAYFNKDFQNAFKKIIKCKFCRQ

Another assay addresses Histamine H3 receptor (Homo sapiens, UniProt Q9Y5N1).
Assay [11] addresses Voltage-gated inwardly rectifying potassium channel KCNH2 (Homo sapiens, UniProt Q12809). Format: functional.
Further: assay procedure not described here.

Sequence of Sodium-dependent dopamine transporter (Q01959 whole entry): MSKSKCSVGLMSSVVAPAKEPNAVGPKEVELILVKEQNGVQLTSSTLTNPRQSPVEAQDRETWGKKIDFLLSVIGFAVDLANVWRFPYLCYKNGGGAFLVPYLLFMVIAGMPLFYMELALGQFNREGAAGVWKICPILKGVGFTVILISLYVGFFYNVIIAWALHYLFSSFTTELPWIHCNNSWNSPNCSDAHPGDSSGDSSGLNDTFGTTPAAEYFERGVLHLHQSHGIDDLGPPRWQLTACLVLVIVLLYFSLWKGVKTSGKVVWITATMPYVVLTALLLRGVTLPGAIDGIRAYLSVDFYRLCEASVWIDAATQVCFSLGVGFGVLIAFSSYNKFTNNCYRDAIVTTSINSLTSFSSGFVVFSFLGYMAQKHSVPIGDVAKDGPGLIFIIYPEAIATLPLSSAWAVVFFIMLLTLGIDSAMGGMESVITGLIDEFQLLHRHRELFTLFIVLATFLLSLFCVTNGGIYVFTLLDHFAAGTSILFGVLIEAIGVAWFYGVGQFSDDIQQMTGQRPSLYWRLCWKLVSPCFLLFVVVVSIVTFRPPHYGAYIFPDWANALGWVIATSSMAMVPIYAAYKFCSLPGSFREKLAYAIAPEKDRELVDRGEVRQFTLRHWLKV
Sequence of cGMP-inhibited 3',5'-cyclic phosphodiesterase 3A (Q14432 whole entry): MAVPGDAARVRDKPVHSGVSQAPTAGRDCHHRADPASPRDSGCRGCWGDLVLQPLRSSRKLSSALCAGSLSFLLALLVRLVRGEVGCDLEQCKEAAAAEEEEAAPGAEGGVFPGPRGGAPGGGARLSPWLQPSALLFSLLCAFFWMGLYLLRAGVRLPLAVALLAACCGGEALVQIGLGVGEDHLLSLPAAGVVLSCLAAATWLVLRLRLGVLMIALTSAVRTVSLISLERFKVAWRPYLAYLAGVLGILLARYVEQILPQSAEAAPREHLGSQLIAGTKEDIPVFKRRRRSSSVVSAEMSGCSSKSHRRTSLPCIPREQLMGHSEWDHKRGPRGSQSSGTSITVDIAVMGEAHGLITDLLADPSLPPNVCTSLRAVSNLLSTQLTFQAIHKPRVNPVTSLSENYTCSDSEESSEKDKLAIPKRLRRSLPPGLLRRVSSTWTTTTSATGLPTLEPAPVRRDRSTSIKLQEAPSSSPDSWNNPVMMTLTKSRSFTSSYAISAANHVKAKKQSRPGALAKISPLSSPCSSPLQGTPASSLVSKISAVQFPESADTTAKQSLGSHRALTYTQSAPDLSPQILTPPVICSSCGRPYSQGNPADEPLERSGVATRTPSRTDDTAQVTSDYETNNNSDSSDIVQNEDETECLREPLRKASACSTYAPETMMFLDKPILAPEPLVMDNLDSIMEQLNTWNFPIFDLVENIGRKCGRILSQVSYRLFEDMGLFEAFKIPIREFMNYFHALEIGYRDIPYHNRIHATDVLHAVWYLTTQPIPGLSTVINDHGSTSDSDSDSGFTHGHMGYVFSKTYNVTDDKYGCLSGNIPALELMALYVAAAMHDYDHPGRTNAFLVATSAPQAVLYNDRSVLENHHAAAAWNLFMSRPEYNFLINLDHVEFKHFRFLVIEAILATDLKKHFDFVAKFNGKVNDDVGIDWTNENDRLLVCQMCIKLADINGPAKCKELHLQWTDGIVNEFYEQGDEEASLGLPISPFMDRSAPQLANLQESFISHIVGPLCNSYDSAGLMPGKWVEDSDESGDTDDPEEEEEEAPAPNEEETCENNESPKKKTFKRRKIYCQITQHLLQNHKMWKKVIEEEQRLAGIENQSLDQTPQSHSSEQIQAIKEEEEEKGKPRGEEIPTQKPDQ
Sequence of 5-hydroxytryptamine receptor 2B (P41595 whole entry): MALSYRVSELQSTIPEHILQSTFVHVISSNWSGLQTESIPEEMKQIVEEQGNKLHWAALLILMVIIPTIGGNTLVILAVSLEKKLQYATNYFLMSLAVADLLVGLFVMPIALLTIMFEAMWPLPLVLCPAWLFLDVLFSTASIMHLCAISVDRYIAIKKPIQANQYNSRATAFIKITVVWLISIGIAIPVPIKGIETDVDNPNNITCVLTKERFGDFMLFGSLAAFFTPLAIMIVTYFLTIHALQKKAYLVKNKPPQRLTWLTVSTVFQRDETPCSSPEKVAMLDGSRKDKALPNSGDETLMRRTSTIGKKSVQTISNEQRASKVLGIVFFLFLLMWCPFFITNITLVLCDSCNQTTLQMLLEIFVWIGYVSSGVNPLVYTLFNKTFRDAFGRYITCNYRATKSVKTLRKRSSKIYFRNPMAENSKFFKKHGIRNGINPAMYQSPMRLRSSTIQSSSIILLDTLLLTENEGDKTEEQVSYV
Sequence of Acetylcholinesterase (P22303 whole entry): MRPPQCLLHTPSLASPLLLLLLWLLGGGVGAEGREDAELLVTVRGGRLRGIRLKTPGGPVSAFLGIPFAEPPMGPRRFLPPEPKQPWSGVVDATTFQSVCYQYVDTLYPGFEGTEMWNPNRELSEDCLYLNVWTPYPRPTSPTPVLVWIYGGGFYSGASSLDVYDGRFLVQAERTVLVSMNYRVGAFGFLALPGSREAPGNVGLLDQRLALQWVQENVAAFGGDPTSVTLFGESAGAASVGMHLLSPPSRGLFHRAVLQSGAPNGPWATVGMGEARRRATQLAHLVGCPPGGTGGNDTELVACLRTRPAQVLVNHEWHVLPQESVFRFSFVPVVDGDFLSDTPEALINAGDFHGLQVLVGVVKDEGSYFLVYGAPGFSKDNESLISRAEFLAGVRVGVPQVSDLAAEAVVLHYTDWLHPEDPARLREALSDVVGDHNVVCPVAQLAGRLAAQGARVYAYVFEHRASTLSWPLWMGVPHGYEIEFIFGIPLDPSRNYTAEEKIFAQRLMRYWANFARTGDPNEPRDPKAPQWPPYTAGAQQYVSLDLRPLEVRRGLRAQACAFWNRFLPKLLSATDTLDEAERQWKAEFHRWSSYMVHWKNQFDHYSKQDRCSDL
Sequence of 3',5'-cyclic-AMP phosphodiesterase 4A (P27815 whole entry): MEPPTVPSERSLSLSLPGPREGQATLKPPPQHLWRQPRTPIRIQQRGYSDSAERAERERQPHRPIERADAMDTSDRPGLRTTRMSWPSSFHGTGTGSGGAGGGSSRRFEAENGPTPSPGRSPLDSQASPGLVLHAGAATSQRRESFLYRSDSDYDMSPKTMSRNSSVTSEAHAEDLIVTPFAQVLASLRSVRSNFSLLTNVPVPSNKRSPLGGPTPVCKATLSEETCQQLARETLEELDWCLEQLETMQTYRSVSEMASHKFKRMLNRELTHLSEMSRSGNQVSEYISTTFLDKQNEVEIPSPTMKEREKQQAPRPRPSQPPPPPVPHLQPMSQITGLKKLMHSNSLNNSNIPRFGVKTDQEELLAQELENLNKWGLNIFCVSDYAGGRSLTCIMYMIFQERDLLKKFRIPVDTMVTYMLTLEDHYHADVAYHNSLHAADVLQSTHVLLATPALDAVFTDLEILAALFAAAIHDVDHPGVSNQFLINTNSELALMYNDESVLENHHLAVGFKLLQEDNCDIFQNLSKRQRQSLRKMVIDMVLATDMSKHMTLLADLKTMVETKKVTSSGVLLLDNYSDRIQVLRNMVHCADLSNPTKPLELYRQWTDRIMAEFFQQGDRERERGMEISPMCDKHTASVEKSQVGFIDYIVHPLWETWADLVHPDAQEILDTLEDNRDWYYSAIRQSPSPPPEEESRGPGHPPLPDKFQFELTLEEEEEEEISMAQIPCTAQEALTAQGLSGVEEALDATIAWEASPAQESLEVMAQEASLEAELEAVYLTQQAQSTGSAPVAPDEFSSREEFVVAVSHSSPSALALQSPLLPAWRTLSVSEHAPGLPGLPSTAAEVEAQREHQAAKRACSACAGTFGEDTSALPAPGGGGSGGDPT
Sequence of Histamine H3 receptor (Q9Y5N1 whole entry): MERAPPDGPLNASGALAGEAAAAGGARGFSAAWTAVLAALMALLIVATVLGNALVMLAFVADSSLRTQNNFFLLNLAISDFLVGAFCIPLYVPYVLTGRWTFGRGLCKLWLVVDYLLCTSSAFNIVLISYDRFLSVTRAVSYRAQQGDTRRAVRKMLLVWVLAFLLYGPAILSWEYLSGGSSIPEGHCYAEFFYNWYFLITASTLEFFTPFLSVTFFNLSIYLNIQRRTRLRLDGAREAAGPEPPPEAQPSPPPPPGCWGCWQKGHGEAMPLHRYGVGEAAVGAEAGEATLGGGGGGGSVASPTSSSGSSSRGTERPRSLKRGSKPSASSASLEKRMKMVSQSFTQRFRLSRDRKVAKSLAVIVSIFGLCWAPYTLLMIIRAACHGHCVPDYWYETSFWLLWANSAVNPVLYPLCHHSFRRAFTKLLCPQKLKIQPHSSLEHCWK

As to `Cc1cc2c(cc1S(N)(=O)=O)S(=O)(=O)CCC2`, the AC50 (in [1]; at Prothrombin; in assay [2]; in assay [3]; on Thromboxane A2 receptor [4]; in assay [5]) was > 30 µM throughout. Moreover, the AC50 (on Acetylcholinesterase; in [6]; on Thromboxane A2 receptor [7]; in assay [8]; in assay [9]; in assay [10]) was > 30 µM in each case. Moreover, the half-maximal activity concentration (AC50) (at Histamine H3 receptor; in [11]) was > 30 µM each time.
In the case of `O=C(O)[C@@H]1C[C@@H](O)CN1`, the AC50 (in assay [1]; at Prothrombin; in assay [2]; in assay [3]; on Thromboxane A2 receptor [4]; in assay [5]) was > 30 µM throughout. Further, the half-maximal activity concentration (AC50) (on Acetylcholinesterase; in [6]; on Thromboxane A2 receptor [7]; in assay [8]; in assay [9]; in assay [10]) was > 30 µM in each case. Moreover, the AC50 (at Histamine H3 receptor; in assay [11]) was > 30 µM in each case.
Consider `NC(=O)[C@@H]1CC[C@@H]2CN1C(=O)N2OS(=O)(=O)O` [AVIBACTAM], for which the AC50 (in assay [1]; at Prothrombin; in [2]; in assay [3]; at Thromboxane A2 receptor [4]; in assay [5]) was > 30 µM each time. In addition, the half-maximal activity concentration (AC50) (at Acetylcholinesterase; in [6]; on Thromboxane A2 receptor [7]; in assay [8]; in assay [9]; in [10]) was > 30 µM each time. The concentration at half-maximal activity (AC50) (at Histamine H3 receptor; in assay [11]) was > 30 µM in each case.
Regarding `CC(C)(C)NC(=O)N[C@H](C(=O)N1C[C@H]2[C@@H]([C@H]1C(=O)NC(CC1CCC1)C(=O)C(N)=O)C2(C)C)C(C)(C)C` (stereo not given in full) [BOCEPREVIR], the AC50 (in assay [1]; at Prothrombin; in assay [2]; in [3]; on Thromboxane A2 receptor [4]; in assay [5]) was > 30 µM throughout. Moreover, the concentration at half-maximal activity (AC50) (at Acetylcholinesterase; in [6]; at Thromboxane A2 receptor [7]; in assay [8]; in assay [9]; in assay [10]) was > 30 µM each time. The AC50 (at Histamine H3 receptor; in assay [11]) was > 30 µM each time.
In the case of `NC[C@H]1CC[C@H](C(=O)Oc2ccc(CCC(=O)O)cc2)CC1` [CETRAXATE], the concentration at half-maximal activity (AC50) (commonly the concentration at which the activity in the assay is half-maximal) in assay [1] is > 30 µM; on Prothrombin it was 4.35 µM; in assay [2] it was > 30 µM; in assay [3], > 30 µM; on Thromboxane A2 receptor [4] it was > 30 µM; in assay [5], > 30 µM. The AC50 (at Acetylcholinesterase; in assay [6]; on Thromboxane A2 receptor [7]; in [8]; in assay [9]; in assay [10]) was > 30 µM each time. In addition, the AC50 (on Histamine H3 receptor; in [11]) was > 30 µM in each case.
Regarding `C=C1CC[C@H](O)C/C1=C/C=C1\CCC[C@]2(C)[C@@H]([C@H](C)CCCC(C)C)CC[C@@H]12` [CHOLECALCIFEROL], the half-maximal activity concentration (AC50) was > 30 µM in assay [1]; > 30 µM on Prothrombin; > 30 µM in [2]; > 30 µM in assay [3]; 22.4 µM on Thromboxane A2 receptor [4]; > 30 µM in assay [5]. In addition, the concentration at half-maximal activity (AC50) at Acetylcholinesterase is > 30 µM; in assay [6] it was > 30 µM; on Thromboxane A2 receptor [7], > 30 µM; in assay [8], > 3 µM; in assay [9], > 30 µM; in assay [10], > 30 µM. Besides, the half-maximal activity concentration (AC50) (at Histamine H3 receptor; in assay [11]) was > 30 µM throughout.
For `C[C@H](CCC(=O)O)[C@H]1CC[C@H]2[C@@H]3[C@H](O)C[C@@H]4C[C@H](O)CC[C@]4(C)[C@H]3C[C@H](O)[C@]12C` [CHOLIC ACID], the AC50 (in [1]; on Prothrombin; in assay [2]; in assay [3]; at Thromboxane A2 receptor [4]; in assay [5]) was > 30 µM throughout. Moreover, the AC50 at Acetylcholinesterase is > 30 µM; in [6], > 30 µM; at Thromboxane A2 receptor [7], > 30 µM; in assay [8], 13.8 µM; in assay [9], > 30 µM; in assay [10], > 30 µM. Further, the half-maximal activity concentration (AC50) (on Histamine H3 receptor; in [11]) was > 30 µM in each case.
For the compound `Cc1ncc2c(c1O)COC2c1ccc(Cl)cc1` (stereo not given) [CICLETANINE], the AC50 (in assay [1]; on Prothrombin; in assay [2]; in assay [3]; on Thromboxane A2 receptor [4]; in assay [5]) was > 30 µM in each case. Besides, the concentration at half-maximal activity (AC50) (on Acetylcholinesterase; in assay [6]; at Thromboxane A2 receptor [7]; in [8]; in [9]; in assay [10]) was > 30 µM throughout. The concentration at half-maximal activity (AC50) (on Histamine H3 receptor; in [11]) was > 30 µM each time.
Regarding `COc1ccc2c(C(=S)N(C)CC(=O)O)cccc2c1C(F)(F)F` [TOLRESTAT], the concentration at half-maximal activity (AC50) (in [1]; at Prothrombin; in assay [2]; in assay [3]; at Thromboxane A2 receptor [4]; in assay [5]) was > 30 µM in each case. Besides, the AC50 (on Acetylcholinesterase; in assay [6]; at Thromboxane A2 receptor [7]; in assay [8]; in assay [9]; in assay [10]) was > 30 µM throughout. For the same compound, on Histamine H3 receptor, the AC50 was > 30 µM.

Values taken from ChEMBL document CHEMBL5291721, “A preclinical secondary pharmacology resource illuminates target-adverse drug reaction associations of marketed drugs” (Nat Commun, 2023).
